Measurements as given in US20240285497A1, “METHOD FOR EVALUATING AN ABILITY OF A TEST SAMPLE TO TRIGGER A FOREIGN BODY REACTION IN THE SKIN, A METHOD FOR SCREENING A SUBSTANCE HAVING AN ABILITY TO INHIBIT A FOREIGN BODY REACTION IN THE SKIN, AND AN AGENT FOR INHIBITING A FOREIGN BODY REACTION IN THE SKIN” (priority 2021, published 2024).

Experiments:
[1] = system: matrix metalloprotease 9 mRNA; experiment: MMP9 mRNA expression in HaCaT cells contacted with FICZ, quantitative PCR; type: cell-based, human; settings: 24 hours
Experimental: First, HaCaT cells (CLI; Catalogue No.: 300493) were suspended in a DMEM medium at the density of 1×10^5 cell/mL, and 100 μL of the thus obtained suspension was added to each well of white 96 well plates (Thermo Fisher Scientific, MA, U.S.A.; Catalogue No.: 136102) so that the number of the cells in each well was 10,000 cells/well. In accordance with a conventional method, the cells were incubated at 37° C. for 24 hours in the presence of 5% CO2. Thereafter, the DMEM medium was removed, and 100 μL of a new DMEM medium containing FICZ at a predetermined concentration (i.e., 5 nM, 50 nM, 500 nM, and 5,000 nM) was added, followed by further incubation for 24 hours at 37° C. and 5% CO2. Meanwhile, negative controls were prepared by adding 100 μL of a DMEM medium containing no FICZ instead of the DMEM medium containing FICZ, which were also incubated for 24 hours at 37° C. and 5% CO2. […]
Quantitative PCR was carried out by using THUNDERBIRD Next SYBR qPCR Mix (Toyobo Co., Ltd., Osaka, Japan; Catalogue No. QPX-201) and StepOne Real-Time PCR System (Thermo Fisher Scientific, MA, USA). […] The reaction solution was used for quantitative PCR. Based on Ct (cycle threshold) value obtained by quantitative PCR, an amount of mRNA of each target gene was obtained. […]

XRE-NLuc::HaCaT cells = experiment: in vitro; settings: read-out: LC50; XRE-NLuc::HaCaT cells, median lethal concentration
Experimental: After the above-described incubation for 24 hours, the number of cells in each well was counted by a colorimetric method based on the degradation of tetrazolium salt (WST-1) by mitochondrial dehydrogenase in viable cells. Specifically, 3 μL of Premix WST-1 (Product Name “Premix WST-1 Cell Proliferation Assay System”; Takara Bio Inc., Shiga, Japan; Catalogue No.: MK400) was added to each well of 96 well plates, and then the cells were cultured for 1 hour at 37° C., 5% CO2. Thereafter, 93 μL of cell culture supernatant was removed from each well to measure the absorbance of the supernatant in each well. The removed supernatants were transferred to transparent 96 well plates, and then the absorbance at 450 nm (A450) and, as a reference wavelength, the absorbance at 670 nm (A670) were measured using iMark microplate reader (Bio-Rad; Catalogue No.: 168-1130JA). A value (A450-A670) was obtained by subtracting the absorbance at 670 nm (A670) from the absorbance at 450 nm (A450). The relative viable cell count (%) was expressed as a relative value with the value (A450-A670) obtained for the negative control as 100%.
The ability of each test sample to trigger a foreign body reaction was evaluated using XRE-NLuc::HaCaT cells in the same manner as in Experiment 1-2, except that I3C (Indole-3-carbinol, CAS RN: 700-06-1), ITE (2-(1′H-indole-3′-carbonyl)-thiazole-4-carboxylic acid methyl ester, CAS RN: 448906-42-1), and Indirubin (CAS RN: 479-41-4) were used instead of FICZ as test samples and the amount of each test sample added to the DMEM medium was appropriately changed.

## 6-formylindolo[3,2-b] carbazole [FICZ]
[1]
  concentration necessary to observe a significant increase in the expression level of MMP9 mRNA: about 5000 nM
[1]; FICZ 5-5,000 nM
  expression level of MMP9 mRNA, dependence on concentration: increased along with the concentration of FICZ
XRE-NLuc::HaCaT cells
  CC50: > 5 µM
